Here are results for 44 compounds from PubChem BioAssay AID623871 (Sanford-Burnham Center for Chemical Genomics, 2012).

Active and inactive are the calls of the source.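 How the source made its calls: active means IC50 at or below 10 µM; inactive means the rest.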

This test deals with H9c2 cardiomyoblasts, 2-deoxyglucose injury, ATP luminescence, 2 h. Briefly: cardiomyoblast survival under 2-deoxyglucose stress – cell-based, H9c2, ATP luminescence, SAR follow-up (AID 623871).
As a reminder, the IC50 is the concentration at which inhibition is half-maximal. Consider `COc1cccc(NC(=O)CN(C)C(=O)c2cc(-c3cccs3)nn2-c2ccccc2)c1`, for which the IC50 is > 79 µM (inactive).

With `O=C(C(=O)N1CCCC1)c1c(-c2ccccc2)[nH]c2ccccc12`, the IC50 is > 79 µM (inactive).

As to `Cc1ccc2cc(CN(Cc3cccnc3)S(=O)(=O)c3ccc(F)cc3)c(=O)[nH]c2c1`, the IC50 was > 79 µM (inactive).

Consider `COCCNC(=O)C(c1ccc(O)cc1)N(C(=O)c1snc(C(N)=O)c1N)c1ccccc1F` (centres undefined), for which the IC50 is > 79 µM (inactive).

Consider `Cc1ccccc1N(C(=O)c1snc(C(N)=O)c1N)C(C(=O)NCc1ccc(F)cc1)c1ccc(O)cc1` (centres undefined), for which the IC50 was > 79 µM (inactive).

`Cc1ccc(S(=O)(=O)N2CCN(C(=O)c3cc(=O)[nH]c4ccccc34)CC2)cc1C`: the IC50 was 33.4 µM (inactive).

In the case of `COCCn1c(SC(C(=O)Nc2cc(C)ccc2C)c2ccccc2)nc2ccccc2c1=O` (centres undefined), the IC50 is 4.01 µM (inactive).

Turning to `COc1cc(-c2cc(C(=O)Nc3cccc(C(C)=O)c3)c3ccccc3n2)cc(OC)c1OC`, the IC50 was 10.7 µM (inactive).

Take `CCN(CC)S(=O)(=O)c1cc(C(=O)N2CCN(Cc3cccc4cccnc34)CC2)ccc1C`: the IC50 was > 79 µM (inactive).

Consider `COc1ccc(-n2cc(-c3ccccc3)c3c(N4CCCC4)ncnc32)cc1`, for which the IC50 is > 79 µM (inactive).

On to `COc1ccc(-c2cc(C(=O)NCc3ccccc3)c3ccccc3n2)cc1OC`, for which the IC50 is > 79 µM (inactive).

Turning to `Cc1ccc(-c2[nH]c3ccccc3c2C(=O)C(=O)N(C)C)cc1`, the IC50 is > 79 µM (inactive).

As to `COc1ccc2c(c1OC)C(=O)N1c3ccccc3C(=O)N(c3ccccc3C)C21` (centres undefined), the IC50 is 36.1 µM (inactive).

For `O=c1[nH]c2ccccc2cc1CN(Cc1ccco1)S(=O)(=O)c1ccc(F)cc1`, the IC50 was > 79 µM (inactive).

Turning to `CCN(CC(=O)Nc1ccc(OC)cc1)C(=O)c1cc(-c2cccs2)nn1-c1ccccc1`, the IC50 is 6.24 µM.

For `COc1ccc(NC(=O)CN(C)C(=O)c2cc(-c3cccs3)nn2-c2ccccc2)cc1`, the IC50 is 38.6 µM (inactive).

With `Cc1ccc2cc(CN(C)S(=O)(=O)c3ccc(F)cc3)c(=O)[nH]c2c1`, the IC50 was > 79 µM (inactive).

In the case of `COc1ccc(S(=O)(=O)N(Cc2cccnc2)Cc2cc3ccccc3[nH]c2=O)cc1`, the IC50 was 53.9 µM (inactive).

For `COc1ccc2c(=O)c(C(=O)N3CCN(S(=O)(=O)c4c(C)cc(C)cc4C)CC3)c[nH]c2c1`, the IC50 is > 79 µM (inactive).

As for `COc1cccc(CN(C)C(=O)c2cc(-c3ccccc3)nc3ccc(C)cc23)c1OC`, the IC50 was > 79 µM (inactive).

Regarding `O=C1c2ccccc2N2C(=O)c3ccccc3[C@H]2N1c1ccccc1`, the IC50 is 34.3 µM (inactive).

For `NC(=O)c1nsc(C(=O)N(c2cccc(F)c2)C(C(=O)NC2CCCC2)c2ccc(O)cc2)c1N` (centres undefined), the IC50 was > 79 µM (inactive).

For the compound `COc1ccc2cc(C(=O)N3CCN(S(=O)(=O)c4cc(C)ccc4C)CC3)c(C)nc2c1`, the IC50 is > 79 µM (inactive).

With `COc1ccc(N2C(=O)c3ccccc3N3C(=O)c4c(ccc(OC)c4OC)C23)cc1` (centres undefined), the IC50 is 29.3 µM (inactive).

For the compound `COc1ccc(-c2cc(C(=O)N(C)Cc3ccc(OC)c(OC)c3OC)c3ccccc3n2)cc1OC`, the IC50 was 7.31 µM.

In the case of `COc1ccc(-c2cc(C(=O)N(C)C)c3ccccc3n2)cc1OC`, the IC50 was > 79 µM (inactive).

Regarding `COc1ccccc1N1C(=O)c2ccccc2N2C(=O)c3c(ccc(OC)c3OC)C12` (centres undefined), the IC50 was 42.5 µM (inactive).

As for `COc1ccc(-c2cc(C(=O)NCc3ccco3)c3ccccc3n2)cc1OC`, the IC50 is 39.2 µM (inactive).

On to `COc1cccc(NC(=O)C(Sc2nc3ccccc3c(=O)n2CC(C)C)c2ccccc2)c1` (centres undefined), for which the IC50 is 19.5 µM (inactive).

Regarding `COc1ccc(-n2cc(-c3ccccc3)c3c(NCc4ccccc4)ncnc32)cc1`, the IC50 was 13.6 µM (inactive).

For the compound `COc1ccc2c(c1OC)C(=O)N1c3ccccc3C(=O)N(c3ccc(F)cc3)C21` (centres undefined), the IC50 is 39.4 µM (inactive).

With `Cc1ccc(NC(=O)CN(C)C(=O)c2cc(-c3cccs3)nn2-c2ccccc2)cc1`, the IC50 is 27.2 µM (inactive).

For the compound `O=C(C(=O)N1CCCCC1)c1c(-c2ccccc2)[nH]c2ccccc12`, the IC50 is > 79 µM (inactive).

`NC(=O)c1nsc(C(=O)N(Cc2ccccc2)C(C(=O)NCc2ccc(F)cc2)c2ccc(O)cc2)c1N` (centres undefined): the IC50 is > 79 µM (inactive).

In the case of `Cc1ccc(C)c(S(=O)(=O)N2CCN(C(=O)c3cc4cc(C)ccc4nc3C)CC2)c1`, the IC50 was 46.2 µM (inactive).

Regarding `COc1ccc2c(c1OC)C(=O)N1c3ccccc3C(=O)N(c3cccc(Br)c3)C21` (centres undefined), the IC50 is 10.6 µM (inactive).

Consider `CCCN(CC(=O)Nc1ccccc1OC)C(=O)c1cc(-c2cccs2)nn1-c1ccccc1`, for which the IC50 is > 79 µM (inactive).

As for `Cc1ccc(S(=O)(=O)N(Cc2cccnc2)Cc2cc3ccccc3[nH]c2=O)cc1`, the IC50 was > 79 µM (inactive).

Regarding `COc1ccc(-n2cc(-c3ccccc3)c3c(N4CCCCC4)ncnc32)cc1`, the IC50 was 10.6 µM (inactive).

For `CC(C)CCNC(=O)C(c1ccc(O)cc1)N(C(=O)c1snc(C(N)=O)c1N)c1ccccc1F` (centres undefined), the IC50 was > 79 µM (inactive).

With `CCCn1c(SC(C(=O)Nc2cccc(OC)c2)c2ccccc2)nc2ccccc2c1=O` (centres undefined), the IC50 is > 79 µM (inactive).

Regarding `CCN(CC)C(=O)C(=O)c1c(-c2ccccc2)[nH]c2ccccc12`, the IC50 was > 79 µM (inactive).

Regarding `COc1ccc2cc(C(=O)N3CCN(S(=O)(=O)c4ccc(C)cc4C)CC3)c(C)nc2c1`, the IC50 was > 79 µM (inactive).

For `COc1cccc(CN(C)C(=O)c2cc(-c3ccc(OC)c(OC)c3)nc3ccccc23)c1`, the IC50 is 15.1 µM (inactive).
